Source: patent publication US20140179726A1, “GUT MICROFLORA AS BIOMARKERS FOR THE PROGNOSIS OF CIRRHOSIS AND BRAIN DYSFUNCTION” (priority 2011, published 2014)
Where “and” joins values, the source holds several entries; their conditions need not be identical. Equal values may be shown once.

How the values were obtained:
stool microflora = assay: Prospective study after lactulose withdrawal: stool microbiome on lactulose and 14 days off; format: in vivo, human
Procedure: Prospective study: A selected group of seven cirrhotic patients in the HE group currently only on lactulose (who were also included in the cross-sectional study) were systematically withdrawn from therapy. Their diet was controlled over the study period. Their stool microflora was analyzed while on lactulose and then 14 days off of lactulose therapy. Day 14 was chosen since prior culture-based studies have shown a change in fecal flora after lactulose initiation within that time frame (31).
Interrogation of the Microbiome: Stool was collected and DNA extracted for microbiome analysis within 24 hours of collection from patients and controls using published techniques (29). We first routinely use Length Heterogeneity PCR (LH-PCR) fingerprinting of the 16S rRNA to rapidly survey our samples and standardize the community amplification. We then interrogated the microbial taxa associated with the gut fecal microbiome using Multitag Pyrosequencing (MTPS). This technique allows the rapid sequencing of multiple samples at one time yielding thousands of sequence reads per sample (12).
MTPS: We employed the MTPS process to characterize the microbiome from the fecal samples. Specifically, we have generated a set of 96 emulsion PCR fusion primers that contain the 454 emulsion PCR linkers on the 27F and 355R primers and a different 8 base “barcode” between the A adapter and 27F primer. Thus, each fecal sample was amplified with unique bar-coded forward 16S rRNA primers and then up to 96 samples were pooled and subjected to emulsion PCR and pyrosequenced using a GS-FLX pyrosequencer (Roche). Data from each pooled sample were “deconvoluted” by sorting the sequences into bins based on the barcodes using custom PERL scripts. Thus, we were able to normalize each sample by the total number of reads from each barcode. We have noted that ligating tagged primers to PCR amplicons distorts the abundances of the communities and thus it is critical to incorporate the tags during the original amplification step (12). Several groups have employed various barcoding strategies to analyze multiple samples and this strategy is now well accepted (38).
RDP10 Analysis: We identified the taxa present in each sample using the Bayesian analysis tool in Version 10 of the Ribosomal Database Project (RDP10). The abundances of the bacterial identifications were then normalized using a custom PERL script and taxa present at >1% of the community were tabulated. We chose this cutoff because of our a priori assumption that taxa present in <1% of the community vary between individuals and have minimal contribution to the functionality of that community and 2,000 reads per sample will only reliably identify community components that are greater than 1% in abundance (13).
The cirrhosis group was divided into those with and without HE and were compared. Data from the significant variables between HE and non-HE groups were combined in a MANOVA model. Within HE patients, comparison was made between those on lactulose alone to those with lactulose and rifaximin. Microbiome abundance comparisons between groups were made at a family level using non-parametric tests. A comparison was performed between patients on and withdrawn off of lactulose therapy using the Wilcoxon matched-pair signed rank tests. All values are presented as mean±standard deviation unless mentioned otherwise.

[1] = test system: cirrhotic patients with HE; assay: Cognitive performance, HE patients on rifaximin vs only on lactulose (Example 2); format: in vivo, human
Text: Patients with cirrhosis with or without HE were included for a one-time visit. We excluded patients with a current infection (defined by elevated white blood cell (WBC) count, clinical suspicion or fever), variceal bleeding within the last 4 weeks, on gut-absorbable antibiotics, or had alcohol or illicit drug intake within 3 months (checked by drug and alcohol screens). […] Patients in the “HE” group had suffered at least one HE episode within the last 3 months and were currently controlled on lactulose alone or lactulose with rifaximin.
During the visit, the subjects underwent a physical examination and measurement of body mass index (BMI), detailed analysis of medical records including current medications, a detailed dietary recall and collection of stool and blood samples. All subjects underwent a mini-mental status exam and only those scoring above 25 were included in the full study (14). Subsequently a recommended cognitive battery consisting of the following tests was administered; (a) Psychometric hepatic encephalopathy score (PHES), (b) block design test (subjects are required to replicate designs with given blocks in a timed manner) and (c) Inhibitory control test [ICT: Subjects are instructed to respond to alternating presentations of X and Y on the screen (targets) while inhibiting response when X and Y are not alternating (lures)] (5, 41). The PHES consists of number connection test-A/B (subjects are asked to “join the dots” between numbers or numbers and alphabets in a timed fashion), digit symbol (subjects are required to copy corresponding figures from a given list within 2 minutes), line drawing (time) and (errors): subjects are required to trace a line between two parallel lines and balance between speed and accuracy. Time required and the number of times the subject's line strays beyond the marked lines (errors) are recorded] and serial dotting (subjects are asked to dot the center of a group of blank circles)]. The PHES is a validated battery for cognitive dysfunction in cirrhosis and tests for psychomotor speed, visuo-motor coordination, attention and set-shifting(32). Block design tests for visuo-motor coordination. A high score on block, digit symbol and ICT targets and a low score on the rest indicate good performance.
Statistical analysis: Cirrhotics with HE were compared to those without HE with respect to BMI, inflammatory markers, cognitive performance and microbiome constituents. Unpaired t-tests were used to compare demographics, cognitive tests and inflammatory markers. Since the microbiome constituents tend to be sparse and non-parametrically distributed, we used Metastats to compare microbiome between stool and mucosa of patients with and without HE (42). Metastats performs statistical analysis (to investigate metagenomic differences) along with biomarker discovery (to evaluate specific features underlying these differences) based on repeated t statistics and Fisher's tests on random permutations (34). We also performed Metastats analysis between the mucosal microbiome compared to the stool microbiome in patients with HE and without HE and those in HE on or not on rifaximin. Principal Component Analysis (PCO) on the abundance tables and weighted and unweighted UNIFRAC analysis using the QIIME pipeline were also performed (22, 25). Subsequently, we analyzed the correlations between MELD score, BMI, inflammatory markers, cognitive tests and microbiome constituents using a correlation network analysis obtained through a customized statistical script in R (7) using a P-value cutoff of <0.05 and an R value >0.5 to identify the most significant relationships (4, 16).

[2] = stool, baseline on lactulose, seven patients

OC[C@H]1O[C@@H](O[C@@H]2[C@@H](CO)OC(O)(CO)[C@H]2O)[C@H](O)[C@@H](O)[C@H]1O (mixture of isomers) [lactulose]
clinically recurrent HE at day 14 (stool microflora; after systematic withdrawal of lactulose, seven patients): None of the patients had clinically recurrent HE | abundance of Faecalibacterium spp. post-withdrawal (stool microflora; stool, 14 days off lactulose, p=0.026 vs on lactulose): 1% | abundance of Veillonella spp. post-withdrawal (stool microflora; stool, 14 days off lactulose, trend, p=0.07): 0% | abundance of Alcaligenaceae (stool microflora; [2]): 2.6% | abundance of Alistipes (stool microflora; [2]): 3% | abundance of Bacteroides (stool microflora; [2]): 35% | abundance of Clostridium spp. (stool microflora; [2]): < 1% | abundance of Dialister (stool microflora; [2]): 2% | abundance of Faecalibacterium (stool microflora; [2]): 7% and 6% | abundance of Hafnia (stool microflora; [2]): 2% | abundance of Hallella (stool microflora; [2]): 4% | abundance of Lachnospira (stool microflora; [2]): 5% | abundance of Lactobacillus spp. (stool microflora; [2]): < 1% | abundance of Parabacteroides spp. (stool microflora; [2]): 2% | abundance of Porphyromonadaceae (stool microflora; [2]): 1.7% | abundance of Prevotella (stool microflora; [2]): 13% | abundance of Roseburia (stool microflora; [2]): 3% | abundance of Ruminococcus spp. (stool microflora; [2]): < 1% | abundance of Shigella spp. (stool microflora; [2]): < 1% | abundance of Streptococcus spp. (stool microflora; [2]): < 1% | abundance of Succinispira spp. (stool microflora; [2]): 2% | abundance of Sutterella spp. (stool microflora; [2]): 1% | abundance of Veillonella (stool microflora; [2]): 2% | other relative abundance change after lactulose withdrawal (stool microflora; stool, day 14, including Porphyromonadaceae and Alcaligenaceae): No other significant relative abundance change | block design ([1]; high = good): 19.8 score | digit symbol ([1]; high = good): 38 score | targets ([1]; high = good): 90% | line tracing errors ([1]; high = poor): 44.9 | line tracing time ([1]; high = poor): 127.3 | lures ([1]; high = poor): 16.9 responses | number connection-A ([1]; high = poor): 52.25 s | number connection-B ([1]; high = poor): 145.8 s | serial dotting ([1]; high = poor): 84.0 s
